Reference: US6696480B2, “Upregulation of type III endothelial cell nitric oxide synthase by agents that disrupt actin cytoskeletal organization” (Brigham and Women's Hospital, Inc., priority 1998, dated 2004)
Read-outs that look alike come from different tables or passages of the source.

Assays:
[1] = test system: human endothelial cells
Description: Confluent endothelial cells were used for all treatment conditions.

[2] = test system: ecNOS mRNA; assay: Northern blotting of ecNOS steady-state mRNA in endothelial cells; format: cell-based, human; design: ecNOS mRNA levels increased to / ecNOS mRNA levels, % of basal levels / effect on basal ecNOS mRNA levels: unit of the concentration uncertain; settings: for effect on ecNOS expression (mRNA): 24 hours (FIGS. 9, 11), anaphicoline data not shown
Method: (§1) Equal amounts of total RNA (10-20 mg) were separated by 1.2% formaldehyde-agarose gel electrophoresis and transferred overnight onto Hybond nylon membranes. […] All Northern blots were subjected to stringent washing conditions (0.2× SSC/0.1% SDS at 65° C.) prior to autoradiography. RNA loading was determined by rehybridization with human GAPDH probe.

[3] = test system: RhoB; assay: Rho GTP-binding activity, immunoprecipitation of [35S]GTP S-labeled RhoB; format: cell-based, human; design: RhoB GTP-binding activity: dose or concentration left out as unconfirmed
Method: (§2) The Rho GTP-binding activity was determined by immunoprecipitation of [^35 S]GTP S-labeled Rho. Briefly, membrane and cytosolic proteins were isolated as previously desribed (Liao, J K and Homcy, C J, J Clin Invest, 1993, 92:2168-2172). Proteins (20 mg) from control and treated endothelial cells were incubated for 30 min at 37° C. in a buffer containing [35 S]GTP S (20 nM), GTP (2 mM), MgCl22 (5 mM), EGTA (0.1 mM), NaCl (50 mM), creatinine phosphate (4 mM), phosphocreatinine kinase (5 units), ATP (0.1 mM), dithiothreitol (1 mM), leupeptin ([…]), aprotinin (50 mg/ml), and phenylmethanesulfonyl fluoride (PMSF, 2 mM). The assay was terminated with excess unlabeled GTP S (100 mM).
(§3) Samples were then resuspended in 100 ml of immunopricipitation buffer containing Triton-X (1%), SDS (0.1%), NaCl (150 mM), EDTA (5 mM), Tris-HCl (25 mM, pH 7.4), leupeptin (10 mg/ml), aprotinin (10 mg/ml), and PMSF (2 mM). […]
(§4) The pellets were washed four times in a buffer containing HEPES (50 mM, pH 7.4), NaF (100 mM), sodium phosphate (50 mM), NaCl (100 mM), Triton X-100 (1%), and SDS (0.1%). The final pellet containing the immunoprecipitated [35 S]GTP S-labeled Rho proteins was counted in a liquid scintillation counter (LS 1800, Beckman Instruments, Inc. Fullerton, Calif.). Nonspecific activity was determined in the presence of excess unlabeled GTP S (100 mM).

[4] = test system: RhoA; assay: Rho GTP-binding activity, immunoprecipitation of [35S]GTP S-labeled RhoA; format: cell-based, human; design: RhoA GTP-binding activity: dose or concentration left out as unconfirmed
Method: as §2, §3, §4

[5] = test system: ecNOS; assay: ecNOS activity, LNMA-inhibitable nitrite production (modified nitrite assay); format: cell-based, human; settings: for nitrite production: L-mevalonate
[6] = test system: cerebral ischemia, left middle cerebral artery (MCA) occlusion; assay: Murine model of cerebral vascular ischemia (MCA occlusion); format: in vivo, SV-129 mice; settings: lovastatin, at higher relative concentrations (data not shown)
Description: Ischemia was produced by occluding the left middle cerebral artery (MCA) with a coated 8.0 nylon monofilament under anesthesia as described (Huang, Z et al., J Cereb Blood Flow Metab, 1996, 16:981-987, Huang, Z et al., Science, 1994, 265:1883-1885, Hara, H et al., J Cereb Blood Flow Metab, 1997, 1:515-526). Arterial blood pressure, heart rate, arterial oxygen pressure, and partial pressure of carbon dioxide were monitored as described (Huang, Z et al., J Cereb Blood Flow Metab, 1996, 16:981-987, Huang, Z et al., Science, 1994, 265:1883-1885, Hara, H et al., J Cereb Blood Flow Metab, 1997, 1:515-526). The filaments were withdrawn after 2 hours and after 24 h, mice were either sacrificed or tested for neurological deficits using a well-established, standardized, observer-blinded protocol as described (Huang, Z et al., J Cereb Blood Flow Metab, 1996, 16:981-987, Huang, Z et al., Science, 1994, 265:1883-1885, Hara, H et al., J Cereb Blood Flow Metab, 1997, 1:515-526). The motor deficit score range from 0 (no deficit) to 2 (complete deficit).
Brains were divided into five coronal 2-mm sections using a mouse brain matrix (RBM-200C, Activated Systems, Ann Arbor, Mich., USA). Infarction volume was quantitated with an image analysis system (M4, St. Catharines, Ontario, Canada) on 2% 2,3,5-triphenyltetrazolium chloride stained 2-mm slices. The levels of serum cholesterol, creatinine and transaminases were determined by the Tufts University Veterinary Diagnostic Laboratory (Grafton, Mass.).

[7] = test system: G-protein as and b-actin mRNA; assay: Northern blotting of G-protein as and b-actin mRNA (selectivity); format: cell-based, human; settings: normoxic or hypoxic conditions
Method: as §1

[8] = test system: ecNOS protein; design: ecNOS protein levels: dose or concentration left out as unconfirmed
[9] = test system: RhoA; assay: Rho membrane translocation, immunoblot of membrane and cytosol, RhoA; format: cell-based, human; settings: mevastatin
Method: (§5) Autoradiography was performed as described earlier.

[10] = test system: RhoB; assay: Rho membrane translocation, immunoblot of membrane and cytosol, RhoB; format: cell-based, human; settings: mevastatin
Method: as §5

[11] = test system: ecNOS protein; assay: Overexpression of Rho mutants, immunoblot of ecNOS protein; format: cell-based, bovine; settings: about 24 h after transfection
Method: For transfection studies, bovine rather than human endothelial cells were used because of their higher transfection efficiency by the calcium-phosphate precipitation method (12% vs <4%) (15). Bovine endothelial cells (60-70% confluent) were transfected with 15 mg of the indicated cDNAs: the insertless vector (pcDNA3), pcDNA3-c-myc-wtRhoA (wildtype RhoA), and pcDNA3-c-myc-N 19RhoA (dominant-negative RhoA mutant) (Gebbink, M et al., J Cell Biol, 1997, 137:1603-1613). As an internal control for transfection efficiency, pCMV. b-Gal plasmid (5 mg) was co-transfected. Preliminary results using b-galactosidase staining indicate that cellular transfection efficiency was approximately 10% to 14%. The b-galactosidase activity was determined by a chemiluminescence assay (Dual-Light, Tropix, Bedford, Mass.) using a Berthold L9501 luminometer. Approximately 24 h after transfection, cells were harvested for immunoblot analyses of ecNOS expression. The ecNOS protein levels were then standardized to the corresponding levels of transfected RhoA expression as determined by antisera to the corresponding c-myc tag.

[12] = mevastatin alone or in combination with GGPP or FPP

CC(=O)C(C)=NO [BDM, 2,3-butanedione 2-monoxime]
nonspecific cytotoxicity as cause of increased ecNOS expression [1]: does not result from nonspecific cytotoxicity

C=C1[C@@H](C)[C@H]2[C@H](Cc3ccccc3)NC(=O)[C@]23[C@H](OC(C)=O)/C=C/[C@@](C)(O)C(=O)[C@@H](C)C/C=C/[C@H]3[C@@H]1O [Cytochalasin D]
effect on ecNOS expression (mRNA) [2]: upregulation of ecNOS | nonspecific cytotoxicity as cause of increased ecNOS expression [1]: does not result from nonspecific cytotoxicity

CC(C)=CCC/C(C)=C/CC/C(C)=C/COP(=O)(O)OP(=O)(O)O [FPP, farnesylpyrophosphate]
RhoB GTP-binding activity [3]: 2.7 ± 0.5 fmol/mg/min | observable adverse effects on cellular morphology / viability [1]: no observable adverse effects

CC(C)=CCC/C(C)=C/CC/C(C)=C/CC/C(C)=C/COP(=O)(O)OP(=O)(O)O [GGPP, geranylgeranylpyrophosphate]
effect on basal ecNOS mRNA levels ([2]; GGPP (10 (unit uncertain)) alone): did not significantly affect | RhoA GTP-binding activity [4]: 4.1 ± 0.3 fmol/mg/min | observable adverse effects on cellular morphology / viability [1]: no observable adverse effects

CC[C@H](C)C(=O)O[C@H]1C[C@@H](C)C=C2C=C[C@H](C)[C@H](CC[C@@H]3C[C@@H](O)CC(=O)O3)[C@H]21 [lovastatin]
increase in ecNOS mRNA levels compared to ox-LDL alone ([2]; co-treatment with ox-LDL, lovastatin 10 mmol/L, 24 h): 3.6 fold | ecNOS message increased to ([2]; lovastatin (10 μM) alone): 410±21% | ecNOS message increased to ([2]; lovastatin (10 μM) under hypoxia): 350±27% | increase in ecNOS mRNA levels compared to untreated cells ([2]; lovastatin alone): 36% | increase in ecNOS mRNA level compared to untreated cells ([2]; ox-LDL + lovastatin 10 mmol/L, 24 h): 40±9% | concentration giving similar findings on ecNOS activity, compared to that of simvastatin ([5]; normoxia and hypoxia): 10 fold higher | reduction of cerebral infarct size [6]: also occurred with lovastatin treatment | change in G-protein as and b-actin mRNA levels [7]: Neither simvastatin nor lovastatin caused any significant change | effect on ecNOS expression ([8]; not chemically-activated statin (10)): no effect

CC[C@H](C)C(=O)O[C@H]1CCC=C2C=C[C@H](C)[C@H](CC[C@@H]3C[C@@H](O)CC(=O)O3)[C@H]21 [mevastatin, Mevastatin]
potency on a molar basis compared to simvastatin ([2]; upregulation of ecNOS): approximately ten times less potent | potency on a molar basis compared with lovastatin ([2]; upregulation of ecNOS): equally potent | decrease in membrane localization of RhoA [9]: 60±5% | increase in RhoA in the cytosol [9]: 65±4% | decrease in membrane localization of RhoB [10]: 78±6% | increase in RhoB in the cytosol [10]: 87±7% | effect on cytosolic RhoA activity [4, 12]: not affected | effect on cytosolic RhoB activity [3, 12]: not affected | concentrations that produce cytotoxicity [1]: > 50 µM | observable adverse effects on cellular morphology / viability [1]: no observable adverse effects

COC(=O)Nc1nc2cc(C(=O)c3cccs3)ccc2[nH]1 [nocodazole, Methyl-(5-[2-thienylcarbonyl]-1H-benzimidazol-2-yl)carbamate]
effect on ecNOS expression (mRNA) [2]: do not increase ecNOS expression

C3 transferase
nitrite accumulation [5]: 31±2.1 nmol/500,000 cells/24 hours | increase in nitrite accumulation ([5]; 24 h): 3 fold | increases in ecNOS expression at lower concentrations [8]: correspondingly smaller increases | ecNOS protein levels augmented by ([8]; 48 h): 250±10% | observable adverse effects on cellular morphology / viability [1]: no observable adverse effects

L-mevalonate
nitrite production [5]: 8.6±2.9 nmol/500,000 cells/24 h | nitrite production ([5]; 3% O2): 9.6±1.3 nmol/500,000 cells/24 h | effect of co-treatment on upregulation of ecNOS expression by simvastatin alone ([8]; L-mevalonate (100) + simvastatin (1)): completely reversed | effect on basal ecNOS expression ([8]; L-mevalonate alone (100)): did not have any appreciable effects | ecNOS protein levels ([8]; L-mevalonic acid (400) co-treatment with simvastatin, hypoxia, 48 h): 35±2.4% | ecNOS protein levels ([8]; L-mevalonic acid alone, cells exposed to hypoxia): 25±3.9% | observable adverse effects on cellular morphology / viability [1]: no observable adverse effects

N19RhoA
increase in ecNOS protein levels [11]: 150±5%

anaphicoline
effect on ecNOS expression (mRNA) [2]: do not increase ecNOS expression

wtRhoA: c-myc-tagged wildtype RhoA overexpressed by transfection
reduction of basal ecNOS protein expression [11]: 15±4%
